Here are results for 27 compounds from patent US8022206B2 (OSI Pharmaceuticals, LLC, priority 2008, dated 2011).

In assay [1] the target is MET (human) (Homo sapiens, UniProt P08581). Description: MET (human) AlphaScreen kinase assay, Km of ATP. The assay is classed as biochemical. The note with it: AlphaScreen, Km of ATP; read-out: Met biochemical IC50. An outline of the steps: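 Human MET at lot-optimised concentration in 50 mM Tris pH 7.4 buffer with 1 mM DTT, compound at 1% DMSO final; enzyme starts the reaction, 60 min at RT.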
Chain of MET (human) (P08581 25-1390): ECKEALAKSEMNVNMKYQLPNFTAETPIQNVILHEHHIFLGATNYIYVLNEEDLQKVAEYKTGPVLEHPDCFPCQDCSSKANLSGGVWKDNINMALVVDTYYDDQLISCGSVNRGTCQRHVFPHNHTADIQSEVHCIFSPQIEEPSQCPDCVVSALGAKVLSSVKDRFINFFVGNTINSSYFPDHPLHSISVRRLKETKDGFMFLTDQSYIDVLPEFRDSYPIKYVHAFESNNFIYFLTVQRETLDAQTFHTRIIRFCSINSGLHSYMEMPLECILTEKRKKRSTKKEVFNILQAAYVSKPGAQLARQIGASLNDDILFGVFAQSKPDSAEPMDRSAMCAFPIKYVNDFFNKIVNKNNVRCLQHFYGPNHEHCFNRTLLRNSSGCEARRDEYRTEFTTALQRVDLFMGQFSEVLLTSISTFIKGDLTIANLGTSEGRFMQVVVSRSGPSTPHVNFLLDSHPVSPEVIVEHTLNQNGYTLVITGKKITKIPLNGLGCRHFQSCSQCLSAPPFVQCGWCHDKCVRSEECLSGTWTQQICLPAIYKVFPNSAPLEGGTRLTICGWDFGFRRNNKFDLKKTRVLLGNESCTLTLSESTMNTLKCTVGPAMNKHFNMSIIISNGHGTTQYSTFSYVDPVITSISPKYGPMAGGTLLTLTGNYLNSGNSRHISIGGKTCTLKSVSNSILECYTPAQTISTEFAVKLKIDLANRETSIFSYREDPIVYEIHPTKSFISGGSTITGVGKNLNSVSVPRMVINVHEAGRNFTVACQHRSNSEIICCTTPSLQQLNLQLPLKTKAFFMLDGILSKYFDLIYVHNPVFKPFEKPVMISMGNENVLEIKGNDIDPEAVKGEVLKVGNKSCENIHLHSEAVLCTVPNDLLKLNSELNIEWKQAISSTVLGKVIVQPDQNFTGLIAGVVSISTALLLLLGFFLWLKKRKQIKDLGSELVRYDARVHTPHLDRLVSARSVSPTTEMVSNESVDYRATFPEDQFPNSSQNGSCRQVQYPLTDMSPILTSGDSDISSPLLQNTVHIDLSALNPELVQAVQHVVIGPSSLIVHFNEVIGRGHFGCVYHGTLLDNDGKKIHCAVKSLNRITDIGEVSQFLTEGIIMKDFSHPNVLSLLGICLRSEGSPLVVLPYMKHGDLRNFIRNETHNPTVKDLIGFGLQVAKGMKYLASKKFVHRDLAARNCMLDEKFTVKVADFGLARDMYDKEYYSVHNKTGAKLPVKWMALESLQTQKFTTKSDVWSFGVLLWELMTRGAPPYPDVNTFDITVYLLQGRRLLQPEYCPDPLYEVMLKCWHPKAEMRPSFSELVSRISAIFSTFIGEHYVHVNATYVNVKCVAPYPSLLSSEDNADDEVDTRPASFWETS

Assay [2] has as its target RON (human) (Homo sapiens, UniProt Q04912). Description: RON (human) AlphaScreen kinase assay, Km of ATP. The assay is classed as biochemical. The note with it: AlphaScreen, Km of ATP; read-out: RON biochemical IC50. In outline: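 Detection used PT66 AlphaScreen beads added in Tris pH 7.5/NaCl/EDTA/BSA buffer, read after 1 h incubation. Vehicle-only DMSO wells served as controls.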

Bounds are passed on as bounds.

Chain of RON (human) (Q04912 25-1400): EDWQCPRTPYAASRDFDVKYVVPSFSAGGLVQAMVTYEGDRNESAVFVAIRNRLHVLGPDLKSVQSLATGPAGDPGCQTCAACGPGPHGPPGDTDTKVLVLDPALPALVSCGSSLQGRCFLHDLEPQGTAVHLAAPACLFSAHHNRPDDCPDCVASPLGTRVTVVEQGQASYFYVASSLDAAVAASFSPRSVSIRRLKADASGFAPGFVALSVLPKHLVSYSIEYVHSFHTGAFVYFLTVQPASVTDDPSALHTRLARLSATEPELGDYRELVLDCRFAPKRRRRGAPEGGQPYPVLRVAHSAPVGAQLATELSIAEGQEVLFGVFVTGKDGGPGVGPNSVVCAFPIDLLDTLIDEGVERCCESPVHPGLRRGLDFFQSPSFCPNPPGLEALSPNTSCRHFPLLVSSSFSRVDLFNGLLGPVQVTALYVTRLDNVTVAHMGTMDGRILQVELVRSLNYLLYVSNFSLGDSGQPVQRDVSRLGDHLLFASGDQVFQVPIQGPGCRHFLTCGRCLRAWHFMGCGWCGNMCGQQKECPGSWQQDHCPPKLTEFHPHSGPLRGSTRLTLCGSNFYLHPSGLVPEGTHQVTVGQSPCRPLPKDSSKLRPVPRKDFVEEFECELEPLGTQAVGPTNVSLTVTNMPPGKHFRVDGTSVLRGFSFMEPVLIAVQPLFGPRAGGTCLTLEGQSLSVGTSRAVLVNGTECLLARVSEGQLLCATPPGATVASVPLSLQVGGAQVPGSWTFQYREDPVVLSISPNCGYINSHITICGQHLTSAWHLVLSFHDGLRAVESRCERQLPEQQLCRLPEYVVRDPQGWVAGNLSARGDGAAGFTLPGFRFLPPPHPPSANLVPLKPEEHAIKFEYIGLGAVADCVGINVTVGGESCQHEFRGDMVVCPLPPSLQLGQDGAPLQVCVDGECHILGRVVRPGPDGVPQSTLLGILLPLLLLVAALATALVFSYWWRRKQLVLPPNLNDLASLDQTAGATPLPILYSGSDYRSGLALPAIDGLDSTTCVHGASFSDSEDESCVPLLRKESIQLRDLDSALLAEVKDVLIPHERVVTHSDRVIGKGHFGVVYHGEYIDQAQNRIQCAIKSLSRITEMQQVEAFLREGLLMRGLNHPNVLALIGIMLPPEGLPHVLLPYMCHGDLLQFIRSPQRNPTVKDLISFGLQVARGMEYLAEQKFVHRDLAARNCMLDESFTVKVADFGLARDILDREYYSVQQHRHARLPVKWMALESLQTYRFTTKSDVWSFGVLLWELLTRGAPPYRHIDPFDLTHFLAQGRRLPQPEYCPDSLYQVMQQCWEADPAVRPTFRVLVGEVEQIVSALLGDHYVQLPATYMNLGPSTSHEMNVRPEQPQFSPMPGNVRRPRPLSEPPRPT

One may read the IC50 as the midpoint of a concentration-inhibition curve. For `C[C@@H]1CN(C(=O)N2CC=C(c3coc4c(O[C@H](C)c5c(Cl)ccc(F)c5Cl)c(N)ncc34)CC2)C[C@H](C)N1` (relative stereo) [Example 224, (4-{6-Amino-7-[(R)-1-(2,6-dichloro-3-fluorophenyl)ethoxy]-furo[3,2-c]pyridin-3-yl}-3,6-dihydro-2H-pyridin-1-yl)-((3R*,5S*)-3,5-dimethylpiperazin-1-yl)methanone], the IC50 in assay [1] and in assay [2] was less than 500 nM each time.
As to `C[C@@H](Oc1c(N)ncc2c(C3=CCN(Cc4ccccc4)CC3)coc12)c1c(Cl)ccc(F)c1Cl` [Example 39, 3-(1-Benzyl-1,2,3,6-tetrahydropyridin-4-yl)-7-[(R)-1-(2,6-dichloro-3-fluorophenyl)-ethoxy]-furo[3,2-c]pyridin-6-ylamine], the values for the IC50 in assay [1] and in assay [2] were less than 500 nM and 500 to 5000 nM, respectively.
Regarding `C[C@@H]1CN[C@@H](C)CN1C(=O)c1ccc(-c2coc3c(O[C@H](C)c4c(Cl)ccc(F)c4Cl)c(N)ncc23)cc1` [Example 295], the concentration for half-maximal inhibition (IC50) in assay [1] and in assay [2] was 500 to 5000 nM each time.
With `Cn1c(Cc2ccccc2)ncc(-c2ccc(COc3c(N)ncc4c(Br)coc34)c(F)c2)c1=O` [Example 466, 5-[4-(6-Amino-3-bromofuro[3,2-c]pyridin-7-yloxymethyl)-3-fluorophenyl]-2-benzyl-3-methyl-3H-pyrimidin-4-one], the IC50 in assay [1] and in assay [2] was 500 to 5000 nM throughout.
In the case of `C[C@@H](Oc1c(N)ncc2ccoc12)c1nnc2ccc(-c3ccccc3)nn12` [Example 471, 7-[(1R)-1-(6-phenyl[1,2,4]triazolo[4,3-b]pyridazin-3-yl)ethoxy]furo[3,2-c]pyridin-6-amine], the IC50 in assay [1] was 5000 to 20000 nM; in assay [2], more than 20000 nM.
As for `C[C@H](Oc1c(N)ncc2c(-c3cnn(C4CCNCC4)c3)coc12)c1nnc2ccc(-c3ccccc3)nn12` [Example 478, 7-[(1S)-1-(6-phenyl[1,2,4]triazolo[4,3-b]pyridazin-3-yl)ethoxy]-3-[1-(piperidin-4-yl)-1H-pyrazol-4-yl]furo[3,2-c]pyridin-6-amine], the IC50 in assay [1] was 500 to 5000 nM; in assay [2], more than 20000 nM.
Taken in the same sequence, the figures for `C[C@@H](Oc1c(N)ncc2c(-c3ccc(C(=O)N4CCCC4)cc3)coc12)c1c(Cl)ccc(F)c1Cl` [Example 84, (4-{6-Amino-7-[(R)-1-(2,6-dichloro-3-fluorophenyl)ethoxy]-furo[3,2-c]pyridin-3-yl}phenyl)pyrrolidin-1-ylmethanone] were less than 500 nM and 500 to 5000 nM.
The like results for `C[C@@H](Oc1c(N)ncc2c(-c3ccc(CN4CCC(O)CC4)s3)coc12)c1c(Cl)ccc(F)c1Cl` [Example 216, 1-(5-{6-Amino-7-[(R)-1-(2,6-dichloro-3-fluorophenyl)ethoxy]-furo[3,2-c]pyridin-3-yl}-thiophen-2-ylmethyl)piperidin-4-ol] were, in that order, less than 500 nM and less than 500 nM.
For `CC(=O)Nc1cccc(-c2coc3c(O[C@H](C)c4c(Cl)ccc(F)c4Cl)c(N)ncc23)c1` [Example 78, N-(3-{6-Amino-7-[(R)-1-(2,6-dichloro-3-fluorophenyl)ethoxy]-furo[3,2-c]pyridin-3-yl}phenyl)acetamide], the IC50 in assay [1] and in assay [2] was 500 to 5000 nM each time.
Take `COc1cc(Cl)cc(Cl)c1C(C)Oc1c(N)ncc2c(-c3cnn(C4CCNCC4)c3)coc12` (stereo not drawn) [Example 360, 7-[1-(2,4-Dichloro-6-methoxyphenyl)ethoxy]-3-(1-piperidin-4-yl-1H-pyrazol-4-yl)furo[3,2-c]pyridin-6-ylamine]: the IC50 in assay [1] was less than 500 nM; in assay [2] it was 500 to 5000 nM.
`CC(Cc1c(Cl)cccc1Br)Oc1c(N)ncc2c(-c3cnn(C4CCNCC4)c3)coc12` (stereo not drawn) [Example 371, 7-[2-(2-Bromo-6-chlorophenyl)-1-methylethoxy]-3-(1-piperidin-4-yl-1H-pyrazol-4-yl)furo[3,2-c]pyridin-6-ylamine]: the results for the IC50 in assay [1] and in assay [2] were less than 500 nM and 500 to 5000 nM, respectively.
The like results for `CCN1CCN(C(=O)N2CC=C(c3coc4c(O[C@H](C)c5c(Cl)ccc(F)c5Cl)c(N)ncc34)CC2)CC1` [Example 27, (4-{6-Amino-7-[(R)-1-(2,6-dichloro-3-fluorophenyl)-ethoxy]-furo[3,2-c]pyridin-3-yl}-3,6-dihydro-2H-pyridin-1-yl)-(4-ethylpiperazin-1-yl)-methanone] were, in that order, less than 500 nM and less than 500 nM.
Taken in the same sequence, the figures for `CC(Cc1cccc(F)c1)Oc1c(N)ncc2c(-c3cnn(C4CCNCC4)c3)coc12` (stereo not drawn) [Example 424, 7-[2-(3-Fluorophenyl)-1-methylethoxy]-3-(1-piperidin-4-yl-1H-pyrazol-4-yl)furo[3,2-c]pyridin-6-ylamine] were less than 500 nM and 500 to 5000 nM.
As for `C[C@@H](Oc1c(N)ncc2c(-c3csc(C(=O)N4CCC(O)CC4)c3)coc12)c1c(Cl)ccc(F)c1Cl` [Example 313, (4-{6-Amino-7-[(R)-1-(2,6-dichloro-3-fluorophenyl)ethoxy]-furo[3,2-c]pyridin-3-yl}-thiophen-2-yl)-(4-hydroxypiperidin-1-yl)methanone], the IC50 in assay [1] and in assay [2] was 500 to 5000 nM throughout.
As for `CC(Oc1c(N)ncc2c(-c3cnn(C4CCNCC4)c3)coc12)c1c(Cl)c(F)cc(OCCCN(C)C)c1Cl` (stereo not drawn) [Example 156, 7-(1-{2,6-Dichloro-3-[3-(dimethylamino)propoxy]-5-fluorophenyl}ethoxy)-3-[1-(piperidin-4-yl)-1H-pyrazol-4-yl]furo[3,2-c]pyridin-6-amine], the IC50 in assay [1] and in assay [2] was less than 500 nM in each case.
In the case of `Cc1ccc(-c2coc3c(O[C@H](C)c4c(Cl)ccc(F)c4Cl)c(N)ncc23)s1` [Example 95, 7-[(R)-1-(2,6-Dichloro-3-fluorophenyl)ethoxy]-3-(5-methylthiophen-2-yl)furo[3,2-c]pyridin-6-ylamine], the IC50 in assay [1] and in assay [2] was less than 500 nM each time.
As for `C[C@@H](Oc1c(N)ncc2c(C(=O)NCCN)coc12)c1c(Cl)ccc(F)c1Cl` [Example 193, 6-Amino-7-[(R)-1-(2,6-dichloro-3-fluorophenyl)ethoxy]furo[3,2-c]pyridine-3-carboxylic acid (3-aminoethyl)amide], the IC50 in assay [1] is less than 500 nM; in assay [2], 500 to 5000 nM.
With `C[C@@H](Oc1c(N)ncc2c(-c3ccnc(N4CCNCC4)c3)coc12)c1c(Cl)ccc(F)c1Cl` [Example 132, 7-[(R)-(2,6-Dichloro-3-fluorophenyl)ethoxy]-3-(2-piperazin-1-yl-pyridin-4-yl)furo[3,2-c]pyridin-6-ylamine], the IC50 in assay [1] and in assay [2] was less than 500 nM in each case.
Turning to `C[C@@H](Oc1c(N)ncc2c(C3=CCN(C(=O)Oc4ccccc4)CC3)coc12)c1c(Cl)ccc(F)c1Cl` [Example 55, 4-{6-Amino-7-[(R)-1-(2,6-dichloro-3-fluorophenyl)-ethoxy]-furo[3,2-c]pyridin-3-yl}-3,6-dihydro-2H-pyridine-1-carboxylic acid phenyl ester], the figures for the IC50 in assay [1] and in assay [2] were less than 500 nM and 500 to 5000 nM, respectively.
Regarding `C[C@@H](Oc1c(N)ncc2c(C(=O)NCC3CCOCC3)coc12)c1c(Cl)ccc(F)c1Cl` [Example 187, 6-Amino-7-[(R)-1-(2,6-dichloro-3-fluorophenyl)ethoxy]furo[3,2-c]pyridine-3-carboxylic acid (tetrahydropyran-4-ylmethyl)amide], the IC50 in assay [1] and in assay [2] was 500 to 5000 nM in each case.
As for `CC(Oc1c(N)ncc2c(-c3cnn(C4CCNCC4)c3)coc12)c1cc(F)cc(-c2ccn[nH]2)c1` (stereo not drawn) [Example 450, 7-{1-[3-Fluoro-5-(2H-pyrazol-3-yl)phenyl]ethoxy}-3-(1-piperidin-4-yl-1H-pyrazol-4-yl)furo[3,2-c]pyridin-6-ylamine], the IC50 in assay [1] was less than 500 nM; in assay [2], 500 to 5000 nM.
The like results for `C[C@@H](Oc1c(N)ncc2c(-c3ccc(N)cc3)coc12)c1c(Cl)ccc(F)c1Cl` [Example 77, 3-(4-Aminophenyl)-7-[(R)-1-(2,6-dichloro-3-fluorophenyl)-ethoxy]furo[3,2-c]pyridin-6-ylamine] were, in that order, 500 to 5000 nM and 500 to 5000 nM.
Consider `C[C@@H](Oc1c(N)ncc2c(-c3cccc(C(=O)O)c3)coc12)c1c(Cl)ccc(F)c1Cl` [Example 80, 3-{6-Amino-7-[(R)-1-(2,6-dichloro-3-fluorophenyl)ethoxy]-furo[3,2-c]pyridin-3-yl}benzoic acid], for which the IC50 in assay [1] and in assay [2] was 500 to 5000 nM throughout.
Turning to `C[C@@H](Oc1c(N)ncc2c(-c3csc(CN4CCC(O)C4)c3)coc12)c1c(Cl)ccc(F)c1Cl` (stereo partly drawn) [Example 307, 1-(4-{6-Amino-7-[(R)-1-(2,6-dichloro-3-fluorophenyl)-ethoxy]furo[3,2-c]pyridin-3-yl}thiophen-2-ylmethyl)pyrrolidin-3-ol], the IC50 in assay [1] and in assay [2] was less than 500 nM each time.
As for `C[C@@H](Oc1c(N)ncc2c(-c3cnc(N4CCOCC4)nc3)coc12)c1c(Cl)ccc(F)c1Cl` [Example 283, 7-[(R)-1-(2,6-Dichloro-3-fluorophenyl)ethoxy]-3-(2-morpholin-4-ylpyrimidin-5-yl)furo[3,2-c]pyridin-6-ylamine], the IC50 in assay [1] and in assay [2] was 500 to 5000 nM throughout.
Turning to `C=C(C)CC(Oc1c(N)ncc2c(-c3cnn(C4CCNCC4)c3)coc12)c1c(Cl)cccc1Cl` (stereo not drawn) [Example 363, 7-[1-(2,6-Dichlorophenyl)-3-methylbut-3-enyloxy]-3-(1-piperidin-4-yl-1H-pyrazol-4-yl)furo[3,2-c]pyridin-6-ylamine], the IC50 in assay [1] and in assay [2] was 500 to 5000 nM each time.
With `C[C@@H](Oc1c(N)ncc2c(-c3cscn3)coc12)c1c(Cl)ccc(F)c1Cl` [Example 136, 7-[(R)-1-(2,6-Dichloro-3-fluorophenyl)-ethoxy]-3-thiazol-4-ylfuro[3,2-c]pyridin-6-ylamine], the IC50 in assay [1] and in assay [2] was 500 to 5000 nM in each case.
